Read-outs that look alike come from different tables or passages of the source.
Legend:
Assay type in all cases: in vivo
[1] = test system: Abutilon theophrasti (ABUTH); test: Post-emergence herbicidal action against ABUTH; conditions: visual rating about 3 weeks after treatment vs untreated controls (100% = plants have died, 0% = like control plants)
Summary of the method: (§1)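 Values are percent visual activity (0% like control, 100% plants dead) after about 3 weeks in the greenhouse. Treatment: post-emergence spray at one-leaf stage, 600 l/ha spray volume, 0.5% additive, doses 320 g/ha or lower.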

[2] = test system: Amaranthus retroflexus (AMARE); test: Post-emergence herbicidal action against AMARE
Summary of the method: as §1

[3] = test system: Oryza sativa (ORYSA); conditions: crop plant compatibility, effect in comparison to untreated controls
Summary of the method: (§2)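 Test crops were treated 2 to 3 weeks after sowing, once they reached one leaf, by spraying compound in water with 0.5% additive at 600 l/ha. Visual scoring compared them with untreated controls roughly 3 weeks on, and appendices a, b and c denote different doses.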

[4] = test system: Polygonum convolvulus (POLCO); test: Post-emergence herbicidal action against POLCO
Summary of the method: as §1

[5] = test system: Setaria viridis (SETVI); test: Pre-emergence herbicidal action against SETVI
Summary of the method: (§3)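 Herbicide applied to soil before seedling emergence, at 600 l/ha spray volume with 0.5% additive and rates up to 320 g/ha. Evaluation: visual percentage effect, about 3 weeks later, greenhouse-grown pots compared with untreated ones.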

[6] = test system: Matricaria inodora (MATIN); test: Pre-emergence herbicidal action against MATIN; conditions: dosage 320 g/ha
Summary of the method: as §3

[7] = test system: Lolium rigidum (LOLRI); test: Pre-emergence herbicidal action against LOLRI; conditions: dosage 320 g/ha
Summary of the method: as §3

[8] = test system: Echinochloa crus-galli (ECHCG); test: Post-emergence herbicidal action against ECHCG; conditions: dosage 320 g/ha
Summary of the method: as §1

[9] = test system: Amaranthus retroflexus (AMARE); test: Pre-emergence herbicidal action against AMARE; conditions: visual scoring after about 3 weeks vs untreated controls
Summary of the method: as §3

[10] = test system: Lolium rigidum (LOLRI); test: Post-emergence herbicidal action against LOLRI; conditions: dosage 320 g/ha
Summary of the method: as §1

[11] = test system: Polygonum convolvulus (POLCO); test: Pre-emergence herbicidal action against POLCO
Summary of the method: as §3

[12] = test system: Viola tricolor (VIOTR); test: Pre-emergence herbicidal action against VIOTR
Summary of the method: as §3

[13] = test system: Echinochloa crus-galli (ECHCG); test: Pre-emergence herbicidal action against ECHCG; conditions: dosage 320 g/ha
Summary of the method: as §3

[14] = test system: Pharbitis purpurea (PHBPU); test: Post-emergence herbicidal action against PHBPU
Summary of the method: as §1

[15] = test system: Avena fatua (AVEFA); test: Post-emergence herbicidal action against AVEFA; conditions: 320 g/ha, visual rating about 3 weeks after treatment
Summary of the method: as §1

[16] = test system: Alopecurus myosuroides (ALOMY); test: Post-emergence herbicidal action against ALOMY; conditions: 320 g/ha, visual rating about 3 weeks after treatment vs untreated controls (100% = plants have died, 0% = like control plants)
Summary of the method: as §1

[17] = test system: Triticum aestivum (TRZAS); conditions: pre-emergence, 80 g/ha, crop plant compatibility, in comparison to untreated controls
Summary of the method: (§4)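 Scoring: visual, % of untreated control, about 3 weeks after a pre-emergence application to the soil surface. Application used WP or EC formulations diluted in water with 0.5% additive at 600 l/ha; dosage levels are marked by suffixes a, b and c.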

[18] = test system: Zea mays (ZEAMX); conditions: pre-emergence, 80 g/ha, crop plant compatibility, in comparison to untreated controls
Summary of the method: as §4

[19] = test system: Triticum aestivum (TRZAS); conditions: crop plant compatibility, 80 g/ha, effect vs untreated controls
Summary of the method: as §2

[20] = test system: Zea mays (ZEAMX); conditions: crop plant compatibility, 80 g/ha, effect vs untreated controls
Summary of the method: as §2

[21] = test system: Verconica persica (VERPE); test: Pre-emergence herbicidal action against VERPE
Summary of the method: as §3

[22] = test system: Alopecurus myosuroides (ALOMY); test: Pre-emergence herbicidal action against ALOMY; conditions: scored visually after about 3 weeks, 100% = plants have died
Summary of the method: as §3

[23] = test system: Digitaria sanguinalis (DIGSA); test: Post-emergence herbicidal action against DIGSA; conditions: 320 g/ha, visual rating about 3 weeks after treatment
Summary of the method: as §1

[24] = test system: Setaria viridis (SETVI); test: Post-emergence herbicidal action against SETVI; conditions: dosage 320 g/ha
Summary of the method: as §1

[25] = test system: Viola tricolor (VIOTR); test: Post-emergence herbicidal action against VIOTR
Summary of the method: as §1

[26] = test system: Verconica persica (VERPE); test: Post-emergence herbicidal action against VERPE
Summary of the method: as §1

[27] = test system: Avena fatua (AVEFA); test: Pre-emergence herbicidal action against AVEFA; conditions: 320 g/ha, visual scoring after about 3 weeks vs untreated controls
Summary of the method: as §3

[28] = test system: Matricaria inodora (MATIN); test: Post-emergence herbicidal action against MATIN
Summary of the method: as §1

[29] = test system: Digitaria sanguinalis (DIGSA); test: Pre-emergence herbicidal action against DIGSA
Summary of the method: as §3

[30] = test system: Pharbitis purpurea (PHBPU); test: Pre-emergence herbicidal action against PHBPU; conditions: dosage 320 g/ha
Summary of the method: as §3

[31] = 320 g/ha, visual rating about 3 weeks after treatment
[32] = 80 g/ha, visual rating about 3 weeks after treatment vs untreated controls (100% = plants have died, 0% = like control plants)

## CCOC(=O)COc1nn(-c2ccccn2)c(-c2ccc(F)nc2)c1[N+](=O)[O-] [Example I-359]
[1]; 320 g/ha
  Post-emergence action against ABUTH in %: 80%
[2]; [31]
  Post-emergence action against AMARE in %: 90%
[3]; 80 g/ha
  Post-emergence action against ORYSA in %: 0%
[3]; 320 g/ha
  Post-emergence action against ORYSA in %: 0%
[4]; dosage 320 g/ha
  Post-emergence action against POLCO in %: 80%
[5]; dosage 80 g/ha
  Pre-emergence action against SETVI in %: 90%
[5]; dosage 320 g/ha
  Pre-emergence action against SETVI in %: 100%
[6]
  Pre-emergence action against MATIN in %: 90%
[7]
  Pre-emergence action against LOLRI in %: 80%
[8]
  Post-emergence action against ECHCG in %: 80%
[9]; 320 g/ha
  Pre-emergence action against AMARE in %: 90%
[10]
  Post-emergence action against LOLRI in %: 80%
[11]; dosage 320 g/ha
  Pre-emergence action against POLCO in %: 80%
[12]; 320 g/ha, Viola tricolor
  Pre-emergence action against VIOTR in %: 100%
[13]
  Pre-emergence action against ECHCG in %: 80%
[14]; dosage 320 g/ha
  Post-emergence action against PHBPU in %: 80%
[15]
  Post-emergence action against AVEFA in %: 90%
[16]
  Post-emergence action against ALOMY in %: 90%
[17]
  Pre-emergence action against TRZAS in %: 0%
[18]
  Pre-emergence action against ZEAMX in %: 10%

## COC(=O)[C@@H](C)Oc1nn(-c2ncccc2F)c(-c2cccnc2)c1C#N [Example I-04]
[1]; 80 g/ha
  Post-emergence action against ABUTH in %: 90%
[1]; 320 g/ha
  Post-emergence action against ABUTH in %: 90%
[2]; [32]
  Post-emergence action against AMARE in %: 90%
[2]; [31]
  Post-emergence action against AMARE in %: 90%
[19]
  Post-emergence action against TRZAS in %: 20%
[20]
  Post-emergence action against ZEAMX in %: 0%
[3]; 80 g/ha
  Post-emergence action against ORYSA in %: 0%
[3]; 320 g/ha
  Post-emergence action against ORYSA in %: 0%
[4]; dosage 320 g/ha
  Post-emergence action against POLCO in %: 90%
[5]; dosage 320 g/ha
  Pre-emergence action against SETVI in %: 100%
[21]; dosage 320 g/ha
  Pre-emergence action against VERPE in %: 100%
[22]; 320 g/ha
  Pre-emergence action against ALOMY: 100%
[6]
  Pre-emergence action against MATIN in %: 90%
[7]
  Pre-emergence action against LOLRI in %: 90%
[23]
  Post-emergence action against DIGSA in %: 80%
[9]; 80 g/ha
  Pre-emergence action against AMARE in %: 90%
[9]; 320 g/ha
  Pre-emergence action against AMARE in %: 100%
[11]; dosage 320 g/ha
  Pre-emergence action against POLCO in %: 100%
[24]
  Post-emergence action against SETVI in %: 100%
[12]; 320 g/ha, Viola tricolor
  Pre-emergence action against VIOTR in %: 100%
[13]
  Pre-emergence action against ECHCG in %: 90%
[14]; dosage 320 g/ha
  Post-emergence action against PHBPU in %: 100%
[25]; 320 g/ha
  Post-emergence action against VIOTR in %: 80%
[17]
  Pre-emergence action against TRZAS in %: 0%
[18]
  Pre-emergence action against ZEAMX in %: 0%

## COC(=O)[C@@H](C)Oc1nn(-c2ncccc2F)c(-c2cccnc2)c1Br [Example I-03]
[26]; 320 g/ha, VERPE
  Post-emergence action against VERPE in %: 90%
[26]; dosage 80 g/ha
  Post-emergence action against VERPE in %: 80%
[1]; 80 g/ha
  Post-emergence action against ABUTH in %: 80%
[1]; 320 g/ha
  Post-emergence action against ABUTH in %: 90%
[2]; [32]
  Post-emergence action against AMARE in %: 80%
[2]; [31]
  Post-emergence action against AMARE in %: 90%
[20]
  Post-emergence action against ZEAMX in %: 0%
[3]; 80 g/ha
  Post-emergence action against ORYSA in %: 0%
[4]; dosage 80 g/ha
  Post-emergence action against POLCO in %: 90%
[4]; dosage 320 g/ha
  Post-emergence action against POLCO in %: 90%
[5]; dosage 320 g/ha
  Pre-emergence action against SETVI in %: 100%
[21]; dosage 80 g/ha
  Pre-emergence action against VERPE in %: 90%
[21]; dosage 320 g/ha
  Pre-emergence action against VERPE in %: 100%
[22]; 80 g/ha
  Pre-emergence action against ALOMY: 90%
[22]; 320 g/ha
  Pre-emergence action against ALOMY: 100%
[6]
  Pre-emergence action against MATIN in %: 100%
[7]
  Pre-emergence action against LOLRI in %: 100%
[8]
  Post-emergence action against ECHCG in %: 90%
[27]
  Pre-emergence action against AVEFA in %: 80%
[9]; 80 g/ha
  Pre-emergence action against AMARE in %: 90%
[9]; 320 g/ha
  Pre-emergence action against AMARE in %: 100%
[11]; dosage 80 g/ha
  Pre-emergence action against POLCO in %: 90%
[11]; dosage 320 g/ha
  Pre-emergence action against POLCO in %: 100%
[24]
  Post-emergence action against SETVI in %: 90%
[12]; 320 g/ha, Viola tricolor
  Pre-emergence action against VIOTR in %: 100%
[12]; dosage 80 g/ha
  Pre-emergence action against VIOTR in %: 100%
[13]
  Pre-emergence action against ECHCG in %: 80%
[14]; dosage 80 g/ha
  Post-emergence action against PHBPU in %: 90%
[14]; dosage 320 g/ha
  Post-emergence action against PHBPU in %: 100%
[15]
  Post-emergence action against AVEFA in %: 90%
[28]; dosage 80 g/ha
  Post-emergence action against MATIN in %: 80%
[28]; dosage 320 g/ha
  Post-emergence action against MATIN in %: 90%
[25]; 80 g/ha
  Post-emergence action against VIOTR in %: 90%
[25]; 320 g/ha
  Post-emergence action against VIOTR in %: 90%
[16]
  Post-emergence action against ALOMY in %: 100%
[29]; 80 g/ha, visual scoring after about 3 weeks vs untreated controls
  Pre-emergence action against DIGSA in %: 90%
[29]; dosage 320 g/ha
  Pre-emergence action against DIGSA in %: 100%
[30]
  Pre-emergence action against PHBPU in %: 90%
[17]
  Pre-emergence action against TRZAS in %: 10%

— patent publication US20240041042A1, “1-(PYRIDYL)-5-AZINYLPYRAZOLE DERIVATIVES, AND THEIR USE FOR CONTROL OF UNDESIRED PLANT GROWTH” (Bayer Aktiengesellschaft, priority 2020, published 2024)
